The text below walks through data of patent US8790883B2, “Methods of identifying NF-κB inhibitors” (priority 2003, dated 2014).

Ends that are not written are not given here. Peptide text beside a SMILES is read from it. * marks the point of attachment. BODIPYFLEthylmaleimide = Cc1cc(C)n2c1C=C1C=CC(CCC(=O)NCCN3C(=O)CC(*)C3=O)=[N+]1[B-]2(F)F; BODIPY = not defined here

In data set [1] the test system is LPS-induced NF-κB activation. In words: More stringent NF-κB inhibition assay, second procedure: peptide internalization, washing, 24 h growth, then LPS. The class given is cell-based, murine. As to conditions: 10 μM peptide. An excerpt: Left panels show a helical wheel diagram of CC2 (A) and LZ (B) peptides. The view is from the top the molecule. The (a) through (g) positions, which are an essential feature of coiled coil sequence (Vinson, 2002, Mol. Cell. Biol.) represent sequential positions in each peptide sequence. The first (a) and fourth (d) positions that are generally occupied by hydrophobic amino acids constitute the hydrophobic core for parallel as well as antiparallel-coiled coils. Mutations that were introduced in (a) positions of the CC2 variant (BODIPY-Ant-CC2 (Mu); shown as residues 6-40 of SEQ ID NO:3, with glycine mutations corresponding to residues 6-40 of SEQ ID NO:5) or in (d) positions of the LZ variant (BODIPY-Ant-(Mu) are shown. In the right panels, 70Z3-C3 cells were incubated for 2 hours in the absence (control) or in the presence of 10 μM of cell permeable wild type (BODIPY-Ant-CC2 (WT)) or mutant (BODIPY-Ant-CC2 (Mu)) CC2 peptides (A) or wild type (BODIPY-Ant-LZ (WT)) or mutant (BODIPY-Ant-(Mu)) LZ peptides (B). The cells were then extensively washed to remove the excess peptide which had not been internalized and the cells were then diluted three times and allowed to grow for 24 hours before treatment for 5 hours with (+) or without LPS (−). NF-κB activity was measured using the β-galactosidase assay. Error bars represent the standard deviation of two independent experiments.
(A) Sequence alignment of the NEMO-derived LZ (residues 301-336 of SEQ ID NO: 12) and the GCN4 peptides (residues 23-55 of SEQ ID NO:8). Both coiled-coil motifs were aligned using clustalX. Identical and similar amino acid residues (shaded) are indicated by (!) or (*), respectively. (B) Overview and helical wheel diagram of the GCN4 coiled-coil (top view). The amino-acid sequence of GCN4 is shown with its corresponding [a-g] positions and residues that differ from the corresponding NEMO-derived LZ sequence are boxed according to their degree of conservation. Identical (open square) and similar residues (open triangle) are indicated. […] NF-κB activity was measured using the b-galactosidase assay. […]

A short description of data set [2]: Cytotoxicity of NLM-DR derived peptides (MTS, FACS, microscope), Table 2.
Data set [3] is described as follows: Circular dichroism studies of helix stability. Type of data set: physicochemical. The source says: From circular dichroism studies (CD), it appears that CC2 and LZ peptides adopt a helicoidal structure, depending on their concentration. […] RMN and Rayon X Diffraction studies have confirmed the structure of CC2.
A general note: Circular dichroism is the unequal absorption of left and right circularly polarised light.

Data set [4] relates to LPS-induced NF-κB activation. The experiment in a line: NF-κB inhibition assay, first procedure: LPS-induced NF-κB dependent β-galactosidase reporter in 70Z/3-C3 cells. As to conditions: peptide 2 h, LPS 3 h, 70Z3-C3 cells (FIG. 3D). The class given is cell-based, murine.
Experimental: The resulting cell line, 70Z3-C3, was incubated for 2 hours in the absence or in the presence of 20 μM of antennapedia peptide (Ant), or BODIPY-labeled antennapedia peptide (BODIPY-Ant), or BODIPY-labeled antennapedia peptide coupled to CC2 (BODIPY-Ant-CC2) or LZ (BODIPY-Ant-LZ) peptides, After peptide internalization, cells were treated for 5 hours with LPS (3 μg/ml, (+) in left panel) or untreated (right panel and (−) in left panel) and the NF-κB activity was measured by β-galactosidase assay. Error bars represent the standard deviation of three separate experiments. (B) Concentration dependence of inhibition of LPS-induced NF-κB activation by BODIPY-Ant-CC2 peptide (left panel) or BODIPY-Ant-LZ peptide (right panel). Cells were treated as in (A) but with different concentration of peptide as indicated. The potential of each peptide to inhibit LPS-induced NF-κB activation was measured by determining the IC50 value that correspond to 50% inhibition of LPS-induced NF-κB activation as compared to the control (no peptide) (C). (D) Effect of the N-fusion sequence of antennapedia on the inhibition of NF-κB activation. Control (no peptide) or CC2, or LZ peptides, with (BODIPY-ANT-CC2, BODIPY-ANT-LZ) or without the antennapedia sequence at the N-terminus (CC2, LZ) were incubated for 2 hours with 70Z3-C3 cells followed with (+) or without (−) the LPS-treatment for 3 hours. NF-κB activity was then measured by β-galactosidase assay.
In a first procedure 2.2×10^5 70Z/3-C3 cells in 220 μl of RPMI 1640 supplemented with 10% fetal calf serum (FCS) and 50 μM β-mercaptoethanol were placed in a 96-well plate and incubated with various concentrations of peptide (0 to 20 μM) at 37° C. in 5% CO2 incubator. After two hours an equal portion (100 μl) of each cell sample transferred in two wells containing each 10^5 cells. One aliquot of cells was then treated for 5 hours with lipopolysaccharides from Salmonella abortus (Sigma) at 0.5 μg/ml final concentration, and the other one left-treated. After 5 hours, cells were centrifuged at 400×g for 5 min at room temperature and the cell pellets were washed three times with cold PBS (250 μl) by centrifugation. Cells were then lysed in the lysis buffer (25 mM tris-phosphate buffer at pH 7.8 containing 8 mM magnesium chloride, 1 mM dithioerythreitol, 1% Triton X-100, 15% glycerol and a protease inhibitor mixture (Roche)), and samples were centrifuged at 4° C. for 20 min to clarify the lysate. The supernatant was then kept on ice, and 30 μl was then assayed to measure the β-galactosidase activity with a plate luminometer (Berthold) using the GALACTON-STAR™ as chemiluminescent substrate (BD Biosciences Clontech, Bronstein et al., 1989). Background of reaction was measured by mixing for 1 hour 30 μl of lysis buffer with the reaction buffer (196 μl) and the GALACTON-STAR™ substrate (4 μl) provided by BD Biosciences. In a second procedure and a more stringent assay, 70Z/3-C3 cells (2.2×105 in 220 μl medium) were centrifuged at 400×g at room temperature after peptide internalization for 2 hours, and cell pellets were washed three times with 200 μl of PBS by centrifugation. Cells were then diluted three times with complete medium, and allowed to grow for at least 24 hours. The following steps are identical to the first procedure.
To analyze the inhibition potential of LPS-induced NF-κB activation by cell permeable BODIPY-Ant-CC2 and BODIPY-Ant-LZ peptides, the present inventors stably transfected the murine pre-B 70Z3 cell line with p12XlacZ-kB, which bears the β-galactosidase reporter gene under the control of the NF-κB transcription factor.
The nature of data set [5]: Analytical gel filtration, oligomeric states of peptides. The class given is physicochemical. As to conditions: 10 μM, Superdex 75, buffer with 0.1 mM DDM. Here is the method:
All peptides were loaded at a 10 μM concentration on a superdex 75 HR10/30 column equilibrated in a buffer containing 0.1 mM DDM to improve recovery (see “Materials and methods”). Chromatographic profiles of the CC2 mutant (dashed line) and the CC2 wild type (solid line) fused (BODIPY-Ant-CC2 (WT), BODIPY-Ant-CC2 (Mu), or not fused to the antennapedia sequence (CC2 (WT), CC2 (Mu)) are shown in left panels, and elution profiles of the LZ mutant (dashed line) and the wild type (solid line) fused (BODIPY-Ant-LZ (WT), BODIPY-Ant-LZ (Mu), or not fused to the antennapedia sequence (LZ (WT), LZ (Mu)) are represented in right panels. Elution volumes of globular protein markers are indicated by arrows: Oval, ovalbumin (43 kDa); Chym, chymotrypsinogene A (25 kDa); Ribo, Ribonuclease (13.4 kDa) and Apro, aprotinin (6.5 kDa).
The oligomeric states of peptides were determined by filtration as described in Traincard et al., 2003. In brief, 500 μl samples were loaded on a SUPERDEX™ 75 HR 10/30 column equilibrated in 50 mM Tris-HCl pH 8.0 containing 200 mM NaCl and 0.1 mM DDM, at a constant flow rate of 0.4 ml/min. The presence of the DDM detergent was added in the equilibrium buffer to minimize the adsorption in the column and to increase the peptide recovery. The column was calibrated in the same equilibrium buffer with blue dextran 2000 (void volume), dithioerythritol (total volume), bovine serum albumin (67 kDa, Rs=35.2 Å), ovalbumine (43 kDa, Rs=27.5 Å), chymotrypsinogen A (25 kDa, Rs=21.1 Å), ribonuclease A (13.7 kDa, Rs=16.4 Å), cytochrome C (12.4 kDa, Rs=17.7 Å) and aprotinin (6.5 KDa, Rs=13.5 Å).

“B-CRQIKIWFQNRRMKWKKLKAQADIYKADFQAERHAREKLVEKKEYSQEQLEQSQREFNKL (C(BODIPY)RQIKIWFQNRRMKWKKLKAQADIYKADFQAERHAREKLVEKKEYSQEQLEQSQREFNKL-NH2; not fully specified (N-terminus); printed as B-CRQIKIWFQNRRMKWKKLKAQADIYKADFQAERHAREKLVEKKEYSQEQLEQSQREFNKL; reading uncertain) [BODIPY-Ant-LZ (Mu)]”: the “Inhibition of NF-κB activation compared to the control” value in data set [1] turned out to be 15%.
`CC[C@H](C)[C@H](NC(=O)[C@H](CC(=O)O)NC(=O)[C@H](C)NC(=O)[C@H](CCC(N)=O)NC(=O)[C@H](C)NC(=O)[C@H](CCCCN)NC(=O)[C@H](CC(C)C)NC(=O)[C@H](CCCCN)NC(=O)[C@H](CCCCN)NC(=O)[C@H](Cc1c[nH]c2ccccc12)NC(=O)[C@H](CCCCN)NC(=O)[C@H](CCSC)NC(=O)[C@H](CCCNC(=N)N)NC(=O)[C@H](CCCNC(=N)N)NC(=O)[C@H](CC(N)=O)NC(=O)[C@H](CCC(N)=O)NC(=O)[C@H](Cc1ccccc1)NC(=O)[C@H](Cc1c[nH]c2ccccc12)NC(=O)[C@@H](NC(=O)[C@H](CCCCN)NC(=O)[C@@H](NC(=O)[C@H](CCC(N)=O)NC(=O)[C@H](CCCNC(=N)N)NC(=O)[C@H](CSC1CC(=O)N(CCNC(=O)CCC2=[N+]3C(=Cc4c(C)cc(C)n4[B-]3(F)F)C=C2)C1=O)NC(C)=O)[C@@H](C)CC)[C@@H](C)CC)C(=O)N[C@@H](Cc1ccc(O)cc1)C(=O)N[C@@H](CCCCN)C(=O)N[C@@H](C)C(=O)N[C@@H](CCCNC(=N)N)C(=O)N[C@@H](Cc1ccccc1)C(=O)N[C@@H](CCC(N)=O)C(=O)N[C@@H](C)C(=O)N[C@@H](CCC(=O)O)C(=O)N[C@@H](CCCNC(=N)N)C(=O)N[C@@H](Cc1c[nH]cn1)C(=O)N[C@@H](C)C(=O)N[C@@H](CCCNC(=N)N)C(=O)N[C@@H](CCC(=O)O)C(=O)N[C@@H](CCCCN)C(N)=O` (stereo partly drawn) [BODIPY-Ant-NLM-DR] (Ac-C(BODIPYFLEthylmaleimide)RQIKIWFQNRRMKWKKLKAQADIYKARFQAERHAREK-NH2): the “Cellular uptake relative efficiency (FACS)” value in the data set on 70Z/3-C3 cells is recorded as “+”.
For `CC[C@H](C)[C@H](NC(=O)[C@H](CC(=O)O)NC(=O)[C@H](C)NC(=O)[C@H](CCC(N)=O)NC(=O)[C@H](C)NC(=O)[C@H](CCCCN)NC(=O)[C@H](CC(C)C)NC(=O)[C@H](CCCNC(=N)N)NC(=O)[C@H](CCCNC(=N)N)NC(=O)[C@H](CCCNC(=N)N)NC(=O)[C@H](CCCNC(=N)N)NC(=O)[C@H](CCCNC(=N)N)NC(=O)[C@H](CCCNC(=N)N)NC(=O)[C@H](CCCNC(=N)N)NC(=O)[C@H](CSC1CC(=O)N(CCNC(=O)CCC2=[N+]3C(=Cc4c(C)cc(C)n4[B-]3(F)F)C=C2)C1=O)NC(C)=O)C(=O)N[C@@H](Cc1ccc(O)cc1)C(=O)N[C@@H](CCCCN)C(=O)N[C@@H](C)C(=O)N[C@@H](CCCNC(=N)N)C(=O)N[C@@H](Cc1ccccc1)C(=O)N[C@@H](CCC(N)=O)C(=O)N[C@@H](C)C(=O)N[C@@H](CCC(=O)O)C(=O)N[C@@H](CCCNC(=N)N)C(=O)N[C@@H](Cc1c[nH]cn1)C(=O)N[C@@H](C)C(=O)N[C@@H](CCCNC(=N)N)C(=O)N[C@@H](CCC(=O)O)C(=O)N[C@@H](CCCCN)C(N)=O` (stereo partly drawn) [BODIPY-R7-NLM-DR] (Ac-C(BODIPYFLEthylmaleimide)RRRRRRRLKAQADIYKARFQAERHAREK-NH2), in data set [2], the “Cytotoxicity Cell morphology FACS” value is reported as “no” and the “Cytotoxicity Cell morphology Microscope” value is “no”. The “Cellular uptake relative efficiency (FACS)” value with 70Z/3-C3 cells is “++++”.
Turning to `CC[C@H](C)[C@H](NC(=O)[C@H](CC(=O)O)NC(=O)[C@H](C)NC(=O)[C@H](CCC(N)=O)NC(=O)[C@H](C)NC(=O)[C@H](CCCCN)NC(=O)[C@H](CC(C)C)NC(=O)[C@H](CCCNC(=N)N)NC(=O)[C@H](CCCNC(=N)N)NC(=O)[C@H](CCCNC(=N)N)NC(=O)[C@H](CCCNC(=N)N)NC(=O)[C@H](CCCNC(=N)N)NC(=O)[C@H](CCCNC(=N)N)NC(=O)[C@H](CCCNC(=N)N)NC(=O)[C@H](CCCNC(=N)N)NC(=O)[C@H](CCCNC(=N)N)NC(=O)[C@H](CSC1CC(=O)N(CCNC(=O)CCC2=[N+]3C(=Cc4c(C)cc(C)n4[B-]3(F)F)C=C2)C1=O)NC(C)=O)C(=O)N[C@@H](Cc1ccc(O)cc1)C(=O)N[C@@H](CCCCN)C(=O)N[C@@H](C)C(=O)N[C@@H](CCCNC(=N)N)C(=O)N[C@@H](Cc1ccccc1)C(=O)N[C@@H](CCC(N)=O)C(=O)N[C@@H](C)C(=O)N[C@@H](CCC(=O)O)C(=O)N[C@@H](CCCNC(=N)N)C(=O)N[C@@H](Cc1c[nH]cn1)C(=O)N[C@@H](C)C(=O)N[C@@H](CCCNC(=N)N)C(=O)N[C@@H](CCC(=O)O)C(=O)N[C@@H](CCCCN)C(N)=O` (stereo partly drawn) [BODIPY-R9-NLM-DR] (Ac-C(BODIPYFLEthylmaleimide)RRRRRRRRRLKAQADIYKARFQAERHAREK-NH2), in data set [2], the “Cytotoxicity Cell morphology FACS” value is given as “no” and the “Cytotoxicity Cell morphology Microscope” value is “no”. Further, in data set [2] (MTS cell proliferation assay (Promega)), the “Cytotoxicity MTS Assay” value is listed as “no”. Besides, in the data set on 70Z/3-C3 cells, the “Cellular uptake relative efficiency (FACS)” value is “++”.
Consider “SKGMQLEDLRQQLQQAEEALVAKQELIDKLKEEAEQHKIV [CC2 (WT)]”, for which the “Helix stability by circular dichroism” value in data set [3] is recorded as “helix more stable than LZ”. In addition, in data set [4], the “LPS-induced NF-κB activation, peptides not fused to antennapedia” value was “same level of activation as the control”. For the same compound, the “Oligomeric state by gel filtration” value in data set [5] is “trimer”.
